Data as given in patent US20240092800A1, “USP13 INHIBITORS AND METHODS OF USE THEREOF” (GEORGETOWN UNIVERSITY, priority 2021, published 2024).

Assays:
[1] = Pharmacokinetics in brain and serum of C57BL/6 mice (UHPLC-MS/MS); format: in vivo, mouse; details: 10 mg/kg I.P. single dose
Experimental: Pharmacokinetics Studies. […] Brain and serum samples were collected at 1, 2, 3, 4, 8 and 12 h (n=3 per time point). Animals injected with vehicle (DMSO) were used for background subtraction. Stock solution of the drug (1 mg/mL) and internal standards were prepared in methanol. Intermediate solutions used for the calibrators and control samples were serial-diluted in methanol/water (1:1). Preparation of the calibration curve standards and quality samples (QC) were performed by mixing the intermediate dilutions in blank samples (brain homogenates, serum). […] Serum and brain samples were stored at −80° C. and then thawed to room temperature prior to preparation. The brains were homogenized in MilliQ water (1 mg brain: 10 μL water). Proteins were precipitated in both brain and serum samples by mixing 25 μL aqueous sample with 75 μL internal standard working solution. The mixture was centrifuged at 12,300 g for 5 min. Thereafter, 75 μL of each supernatant and 25 μL of MilliQ water were pipetted into a 96-well PCR plate (Fisher Scientific, Dawsonville, GA,USA).
Briefly, the UHPLC-MS/MS system included an Elute HTG binary gradient UHPLC pump, an Elute column oven and an EVOQ Elite triple quadrupole mass spectrometer (all from Bruker Daltonik GmbH, Bremen, Germany) equipped with an electrospray ionization (ESI) source operating in a positive mode. The samples were injected by use of a PAL auto sampler (CTC Analytics, Zwingen, Switzerland) equipped with a 10-μL sample loop; the samples were kept in a PAL stack cooler for 6 microtiter plates and operating at +6° C. The system was controlled by a Compass 2.0/HyStar 4.0 software (Bruker); the compound screening and quantitation was performed by a TASQ 2.2 data acquisition and processing software (Bruker). The mass spectrometer was supplied by nitrogen and air generated by a Genius 3045 nitrogen/air generator (Peak Scientific Instruments, Inchinnan, Scotland, UK). The ESI parameters were as follows: probe gas flow 50, nebulizer gas flow 60, probe temperature +400° C., cone gas flow 20, cone temperature +350° C., CID gas Ar 1.5 mTorr. The mass spectra were scanned in the MRM mode to find the optimal collision energies for the test compounds and their respective precursor ions.
For chromatographic separation, an YMC-Ultra HT Hydrosphere C18 column (2.0×100 mm, 2 μm particle size) and an YMC-Hydrosphere 2.1×5 mm guard column (YMC Co. Ltd., Kyoto, Japan) were used. The mobile phase A was 10 mM ammonium formate, pH 4.3, in water; the mobile phase B was 10 mM ammonium formate, pH 4.3, in 10% water, 50% acetonitrile and 40% isopropyl alcohol. The mobile phase gradient was as follows (min—A/B%): 0 min—50/50, 0.5 min—50/50, 2.0 min—20/80, 3 min—20/80, 3.1 min—50/50, 4.5 min—50/50. The flow rate was 450 μL/min, and the column temperature was set at 50° C. The sample injection volume was 10 μL.

[2] = test system: alpha-synuclein ubiquitination; test: Alpha-synuclein ubiquitination in TgA53T mice (IP/WB, immunostaining co-localization); format: in vivo, mouse; details: midbrain extracts, 40 mg/kg compared to DMSO and 10 mg/kg
Experimental: Immunoprecipitation (IP). Mouse brain tissues were homogenized in 1×STEN buffer, and the soluble fraction was isolated as indicated above. The lysates were pre-cleaned with immobilized recombinant protein A/G agarose (Santa Crutz, sc-2003, Dallas, TX, USA) and centrifuged at 2500×g for 1 min at 4° C. The supernatant was recovered and quantified by protein assay, and a total of 300 μg protein was incubated overnight at 4° C. with primary anti-alpha-synuclein (1:200, Thermofisher, AHB0261) mouse antibodies or anti-ubiquitin (1:100) (Thermo Fisher, PA3-16717, Rockford, IL, USA) antibodies in the presence of sepharose G and an IgG control with primary antibodies. The immunoprecipitates were collected by centrifugation at 2500×g for 3 min at 4° C., washed 5× in PBS, with spins of 3 min, 2500×g using detergent-free buffer for the last washing step, and the proteins were eluted according to Pierce instructions (Pierce #20365, Rockford, IL, USA). […]
Immunohistochemistry was performed on the 20 μm thick brain sections for evaluation of ubiquitination of alpha-synuclein. […] The optic densitometry of co-localization of ubiquitin with alpha-synuclein was measured using Image J. Tyrosine hydroxylase (TH) is the limiting enzyme in DA synthesis, so probing for TH+ neurons will help to evaluate the status of DA producing neurons in the SN and their terminals in the striatum. […]

[3] = test system: human alpha-synuclein; test: Alpha-synuclein levels via ELISA in alpha-synuclein-transfected SHSY5Y cells; format: cell-based; details: 5 hours, concentration between 1 and 0.1 nM
Experimental: Cell lines, transfection, and treatment.
Alpha-Synuclein Enzyme-Linked Immunosorbent Assay (ELISA). ELISAs for total human alpha-synuclein (Millipore; Burlington, MA) were conducted using Milliplexed ELISA. Briefly, Xmap technology uses magnetic microspheres that are internally coded with two fluorescent dyes. Through precise combinations of these two dyes, multiple proteins are simultaneously measured within a sample. Each of these spheres is coated with a specific capture antibody. The capture antibody binds to the detection antibody and a reporter molecule, completing the reaction on the surface of the bead.
A total of 25 μL soluble protein was incubated overnight at 4° C. with 25 μL of a mixed bead solution. After washing, samples were incubated with 25 μL detection antibody solution for 1.5 hours at room temperature. Streptavidin-phycoerythrin (25 μL) was added to each well containing the 25 μL of detection antibody solution. Samples were then washed and suspended in 100 μL of sheath fluid. Samples were then run on MAGPIX with Xponent software. The median fluorescent intensity (MFI) data were analyzed using a 5-parameter logistic or spline curve-fitting method for calculating analyte concentrations in samples. Specific alpha-synuclein ELISAs were performed on tissue soluble extracts from midbrain lysates in 1XSTEN buffer. The ELISA for USP13 (MyBioSource, Cat # MBS9335287), Human alpha-synuclein (Biolegend, Cat #844101) and specific p-Tau ser396 (Invitrogen, KHB7031) were performed on cell or brain tissue extracts as described above according to manufacturers' protocol.

Question: Which Brain/serum ratio ([1]; 10 mg/kg) does the source give for `Fc1ccc2nccc(OCc3ccccc3)c2c1` [4-(Benzyloxy)-6-fluoroquinoline] here?
Answer: 28.0%

Question: What about the AUC ([1]; brain) of the same compound?
Answer: 0.1643 µM·h

Question: And the “T1/2 (elimination)” value ([1]; brain)?
Answer: 2.32 h

Question: And the AUC ([1]; serum)?
Answer: 0.5994 µM·h

Question: What about the “T1/2 (elimination)” value ([1]; serum) of the same compound?
Answer: 1.84 h

Question: What about the Tmax ([1]; serum) of the same compound?
Answer: 1 h

Question: What about the “alpha-synuclein ubiquitination by immunoprecipitation and WB” value [2] of the same compound?
Answer: increased ubiquitination

Question: And the “level of alpha-synuclein via ELISA” value [3]?
Answer: significantly reduce the level of alpha-synuclein
